These results are taken from patent US10947252B2, “Inhibitors of KEAP1-Nrf2 protein-protein interaction” (Janssen Pharmaceutica NV, priority 2018, dated 2021).

The target of assay [1] is Kelch domain of human KEAP1 (321-624 aa) (Homo sapiens (Human), UniProt Q14145). The experiment in a line: KEAP1 KELCH ThermoFluor binding assay.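 Note: Ligand-induced melting temperature shift of E. coli-expressed KEAP1 Kelch protein, Kd estimated from concentration-response curves of ΔTm.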 Particulars: KEAP Kelch […], 1,8-ANS, pH 7.0, average of results obtained, read-out: Tf Kd. For orientation: Differential scanning fluorimetry follows unfolding on heating by fluorescence.
Sequence of Kelch domain of human KEAP1 (321-624 aa) (Q14145 321-624): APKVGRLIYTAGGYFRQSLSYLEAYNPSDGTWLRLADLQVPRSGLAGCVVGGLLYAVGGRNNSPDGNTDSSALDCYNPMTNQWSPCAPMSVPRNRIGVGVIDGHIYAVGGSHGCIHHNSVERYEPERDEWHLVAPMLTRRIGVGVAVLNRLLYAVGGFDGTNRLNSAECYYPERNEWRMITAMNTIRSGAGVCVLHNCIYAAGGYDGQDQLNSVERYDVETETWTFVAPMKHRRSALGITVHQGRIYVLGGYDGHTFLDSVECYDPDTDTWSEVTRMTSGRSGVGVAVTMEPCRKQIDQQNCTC
Assay [2] has as its system Glo-Response ARE-luc2P HEK293 cell line. Description: ARE luciferase reporter cell-based assay.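 Note: luciferase signal tracks Nrf2 activation of the ARE once compounds disrupt KEAP1-Nrf2 binding, read with One-Glo reagent, DMSO serving as low control.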 Particulars: Homo sapiens, HEK293, 24 h, average of results obtained. A general note: A reporter such as luciferase makes a cellular process visible.

As usually defined, the Kd is the free concentration of one partner at which half of the binding sites on the other are occupied at equilibrium, for simple one-to-one binding. A word on the EC50: it is the concentration at which the effect is half-maximal. A high value points to lower potency in that assay. Turning to `Cc1ccc(C(CC(=O)O)c2ccn3c(C(F)(F)F)nnc3c2C)cc1CN1CC2CCC(F)(F)CN2c2ncccc2S1(=O)=O` (stereo not shown) [Example 452, 3-(3-((10,10-Difluoro-5,5-dioxido-7,7a,8,9,10,11-hexahydro-6H-dipyrido[2,1-d:2′,3′-f][1,2,5]thiadiazepin-6-yl)methyl)-4-methylphenyl)-3-(8-methyl-3-(trifluoromethyl)-[1,2,4]triazolo[4,3-a]pyridin-7-yl)propanoic Acid], the Kd in assay [1] is below 1 nM. The compound further came in with an EC50 in assay [2] of 116 nM.
The like results for `Cc1ccc(C(CC(=O)O)c2ccn3c(C(F)F)nnc3c2C)cc1CN1CC2(COC2)Oc2ccccc2S1(=O)=O` (stereo not shown) [Example 466, 3-(3-(Difluoromethyl)-8-methyl-[1,2,4]triazolo[4,3-a]pyridin-7-yl)-3-(3-((1,1-dioxidospiro[benzo[b][1,4,5]oxathiazepine-4,3′-oxetan]-2(3H)-yl)methyl)-4-methylphenyl)propanoic Acid] were, in that order, below 1 nM and 124 nM.
As for `Cc1ccc(C(CC(=O)O)c2ccn3c(C(F)F)nnc3c2C)cc1CN1CC2(COC2)Oc2ncccc2S1(=O)=O` (stereo not shown) [Example 469, 3-(3-(Difluoromethyl)-8-methyl-[1,2,4]triazolo[4,3-a]pyridin-7-yl)-3-(3-((1′,1′-dioxidospiro[oxetane-3,4′-pyrido[2,3-b][1,4,5]oxathiazepin]-2′(3′H)-yl)methyl)-4-methylphenyl)propanoic Acid], the dissociation constant (Kd) in assay [1] was below 1 nM. Moreover, it took 608 nM to reach a half-maximal effect in assay [2] (EC50).
With `Cc1ccc(C(CC(=O)O)c2ccn3c(C(F)F)nnc3c2C)cc1CN1CC2(CC2)Oc2ncccc2S1(=O)=O` (stereo not shown) [Example 472, 3-(3-(Difluoromethyl)-8-methyl-[1,2,4]triazolo[4,3-a]pyridin-7-yl)-3-(3-((1′,1′-dioxidospiro[cyclopropane-1,4′-pyrido[2,3-b][1,4,5]oxathiazepin]-2′(3′H)-yl)methyl)-4-methylphenyl)propanoic Acid], in assay [1], the Kd is below 1 nM. In assay [2], this compound showed an EC50 of 245 nM.
With `Cc1ccc(C(CC(=O)O)c2ccn3c(C(F)(F)F)nnc3c2C)nc1CN1CC2(COC2)Oc2ccccc2S1(=O)=O` (stereo not shown) [Example 484, 3-(6-((1,1-Dioxidospiro[benzo[b][1,4,5]oxathiazepine-4,3′-oxetan]-2(3H)-yl)methyl)-5-methylpyridin-2-yl)-3-(8-methyl-3-(trifluoromethyl)-[1,2,4]triazolo[4,3-a]pyridin-7-yl)propanoic Acid], the Kd in assay [1] was below 1 nM. Also, in assay [2], the EC50 was 226 nM.
The like results for `Cc1ccc(C(CC(=O)O)c2ccn3c(C(F)(F)F)nnc3c2C)nc1CN1CC2(COC2)Oc2ncccc2S1(=O)=O` (stereo not shown) [Example 493, 3-(6-((1′,1′-Dioxidospiro[oxetane-3,4′-pyrido[2,3-b][1,4,5]oxathiazepin]-2′(3′H)-yl)methyl)-5-methylpyridin-2-yl)-3-(8-methyl-3-(trifluoromethyl)-[1,2,4]triazolo[4,3-a]pyridin-7-yl)propanoic Acid] were, in that order, below 1 nM and 1230 nM.
In the same order, the values of `Cc1ccc(C(CC(=O)O)c2ccn3c(C(F)(F)F)nnc3c2C)nc1CN1CC2(CC2)Oc2ncc(F)cc2S1(=O)=O` (stereo not shown) [Example 508, 3-(6-((8′-Fluoro-1′,1′-dioxidospiro[cyclopropane-1,4′-pyrido[2,3-b][1,4,5]oxathiazepin]-2′(3′H)-yl)methyl)-5-methylpyridin-2-yl)-3-(8-methyl-3-(trifluoromethyl)-[1,2,4]triazolo[4,3-a]pyridin-7-yl)propanoic Acid] are below 1 nM and 92.7 nM.
The like results for `Cc1ccc(C(CC(=O)O)c2ccn3c(C(F)(F)F)nnc3c2C)nc1CN1CC2CCCCN2c2ncc(Cl)cc2S1(=O)=O` (stereo not shown) [Example 518, 3-(6-((3-Chloro-5,5-dioxido-7,7a,8,9,10,11-hexahydro-6H-dipyrido[2,1-d:2′,3′-f][1,2,5]thiadiazepin-6-yl)methyl)-5-methylpyridin-2-yl)-3-(8-methyl-3-(trifluoromethyl)-[1,2,4]triazolo[4,3-a]pyridin-7-yl)propanoic Acid] were, in that order, below 1 nM and 3.48 nM.
